Measured values as given in patent publication US7528175B2, “Method of treating airway diseases with beta-adrenergic inverse agonists” (Inverseon, Inc., priority 2005, dated 2009).
Like-named read-outs stand apart in the source and are kept apart here.

Tests used:
[1] = target: β2-adrenergic receptor (Mus musculus, UniProt P18762); format: binding, mice
Protocol: (§1) β2-adrenergic receptor numbers were measured in asthmatic mice as follows. […] Mice were sacrificed and lung membranes were isolated as follows. Frozen lung tissue was homogenized in an ice-cold buffer containing 0.32 M sucrose and 25 mM Tris (pH 7.4) using a polytron (Pro 200, Pro Scientific, Inc.). The homogenate was centrifuged at 1000×g for 10 min at 4° C. The resulting supernatant was centrifuged at 40,000×g for 20 min at 4° C. The pellet was suspended in an ice-cold 25 mM Tris-HCl buffer (pH 7.4) and centrifuged at 40,000×g for 20 min at 4° C. The final pellet was suspended in 200 μL of 25 mM Tris-HCl (pH 7.4); membrane protein concentration was determined by BCA protein assay kit. […] The incubation was done at 37° C. for 2 h and terminated by rapid vacuum filtration through glass fiber filters. The filters were washed three times with 250 μL of cold wash buffer (25 mM Tris-HCl, pH 7.4) and the radioactivity determined in a counter. […] Receptor densities are expressed as femtomoles of sites per milligram of protein. Bmax is determined by nonlinear regression of the saturation binding curves.

[2] = test system: β2-adrenergic receptor; format: binding, mice; details: 2 days of administration
Protocol: as §1

[3] = test system: β2-adrenergic receptor; test: Immunohistochemistry of β2-adrenergic receptor levels in lungs; format: in vivo, mice; details: chronic treatment vs untreated animals
Protocol: The mice were sacrificed and the lungs excised. […] Lungs were embedded in OCT and 12-μm sections cut with a Tissue-Tek II cryostat. […] After 3 washes in PBS, the slides were blocked with 5% milk in PBS for 1 h, and then incubated overnight with anti-β2-adrenergic receptor antibody (1:200, Santa Cruz Biotechnology) in blocking solution. Slides were washed in PBS and incubated with secondary antibody (1:200, Cy3 goat anti-rabbit, 16 h at 4° C.). […] After washing with PBS, coverslips were mounted and viewed by epifluorescent microscopy.

[4] = test system: ovalbumin-sensitized, allergen-challenged mice; test: Acute nadolol and aminophylline, methacholine-induced bronchoconstriction; format: in vivo; details: nadolol 0.72 mg/kg i.p. 15 minutes prior to methacholine
Protocol: At time point 1 (time=−10 min) baseline airway resistance of the mice was determined.

[5] = test system: asthmatic mice; test: BALF cell number and type (Example 11); format: in vivo; details: vs nontreated asthmatic mice
Source text: The same mice as described in Example 1 underwent bronchoalveolar lavage (BAL) to determine the total number and type of immune system cells in the lung. BAL Fluid (BALF) was irrigated and collected from the lungs of mice as previously described (Evans K L, Bond R A, Corry […]. Frequency dependence of respiratory system mechanics during induced constriction in a murine model of asthma. J Appl Physiol. 2003 January;94(1):245-52). […] The number of neutrophils was increased in nontreated asthmatic mice compared to mice that served as controls for chronic beta-blocker treatments. In comparison to their notable effects on airway responsiveness, the β-AR ligands tested had very little effect on BALF cellularity. […] FIG. 12 has 3 panels of cell number and type of cells from the bronchoalveolar lavage fluid of asthmatic mice treated acutely or chronically with beta adrenergic ligands. Cells were identified as eosinophils (black bars), macrophages (hatched bars), neutrophils (grey bars), and lymphocytes (white bars) by standard morphologic criteria. At least 200 cells were counted per cytospin preparation, and the absolute number of each cell type was calculated based on the volume of fluid recovered from the lavage. […] Data are expressed as mean ±SEM and are representative of 6-25 animals per group. #P<0.05 compared to NTX, *P<0.05 compared to control (ANOVA).

[6] = test system: asthmatic mice; test: Total number of immune cells in BALF (Example 12); format: in vivo; details: did not reach statistical significance
Protocol: Bronchial alveolar lavage fluid was collected from treated animals and total immune cell number was determined and the total number of eosinophils was also determined. Additionally, the interleukin 10 (IL-10) levels were determined in the mice.

[7] = test system: adults with mild asthma
Source text: Study Design: The study is an open-label Phase IIa, proof of principle, 11-week, dose escalation study in mild asthma. Up to twelve subjects with mild asthma, not taking inhaled corticosteroids or other controller medications are to be recruited from a single clinical research center. […] Combivent rescue medication was provided to subjects during the run-in period to replace their own rescue medication which typically is Albuterol (salbutamol a beta 2 partial agonist).
The subjects are maintained at their maximum tolerated dose for a minimum of 4 weeks.
All the following criteria had to be met for dose escalation otherwise the dose was kept at maintenance level (same dose), reduced to previous lower tolerated dose or the subject was terminated from the study.
Data collected at baseline and during study visits include lung function (spirometry—FEV1 and daily peak flow rates —PEFR), asthma symptoms via dairy cards), heart rate and blood pressure. In addition, airway hyper-responsiveness (methacholine challenge test—PC20) and Asthma Control Questionaire (Juniper ACQ) will be performed. Blood is collected to monitor beta adrenergic receptor levels in lymphocytes and baseline laboratory evaluation.

[8] = test system: asthmatic mice; details: Callaerts-Vegh et al. 2004, cited from earlier work
[9] = cited from earlier work

β2-adrenergic receptor (Mus musculus, UniProt P18762), sequence (P18762 whole entry): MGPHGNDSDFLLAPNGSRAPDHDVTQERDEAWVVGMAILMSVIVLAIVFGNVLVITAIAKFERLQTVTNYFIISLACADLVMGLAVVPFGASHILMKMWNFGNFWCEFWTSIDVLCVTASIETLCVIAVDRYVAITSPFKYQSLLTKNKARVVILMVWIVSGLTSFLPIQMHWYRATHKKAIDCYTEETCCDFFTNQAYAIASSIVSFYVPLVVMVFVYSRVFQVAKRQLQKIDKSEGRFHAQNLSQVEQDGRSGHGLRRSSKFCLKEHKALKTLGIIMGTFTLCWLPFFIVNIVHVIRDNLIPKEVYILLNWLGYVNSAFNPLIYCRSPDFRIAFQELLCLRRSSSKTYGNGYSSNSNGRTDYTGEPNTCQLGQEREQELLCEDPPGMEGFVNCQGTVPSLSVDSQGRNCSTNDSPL

CC(C)(C)NCC(O)COc1cccc2c1CC(O)C(O)C2 (stereo not shown) [nadolol]
Bmax ([1]; 15 Minutes drug treatment, lung membranes of asthmatic mice, mean±SEM): 181.9 ± 48.28 femtomoles of sites per milligram of protein
βmax ([1]; 28 Days drug treatment, lung membranes of asthmatic mice, mean±SEM): 785.5 ± 154.8 femtomoles of sites per milligram of protein
Increased β2AR density ([1]; 15 minutes of administration): no
Increased β2AR density ([1]; 28 days of administration): showed an increase in receptor density at both 2 days and 28 days
Increased β2AR density ([1]; 28 days of administration, listed as Nadolol): yes
level of the β2-adrenergic receptor ([1]; chronic treatment, asthmatic mice): nearly eightfold increase
Increased β2AR density [2]: showed an increase in receptor density at both 2 days and 28 days
Increased β2AR density ([2]; listed as Nadolol): yes
labeling with anti-β2-adrenergic receptor antibodies in lungs [3]: considerably more intense
baseline airway resistance [4]: same baseline airway resistance as non-drug treated sensitized and allergen-challenged mice
BALF cellularity ([5]; acute treatment (15 minutes)): significant elevations in the number of neutrophils
BALF cellularity ([5]; chronic treatment (28 days)): significant elevations in the number of neutrophils
lower number of cells in BALF compared to non-drug-treated (S/C) mice ([6]; acute treatment): approximately 25%
lower number of cells in BALF compared to non-drug-treated (S/C) mice ([6]; chronic treatment): approximately 25%
ACQ Score Δ ([7]; Asthma Control Questionnaire, absolute change from baseline, per subject): results were mixed
PEFR % Change baseline ([7]; average last 14 days of treatment vs last 14 days of run-in, per subject): essentially no effect
subjects with reduction in airway twitchiness (increased PC20) ([7]; chronic nadolol): 4 of 5
subjects with PC20 doubling doses within the 1.5 limit ([7]; chronic nadolol, 5 subjects): Two subjects
subjects with increases of doubling doses greater than 1.5 ([7]; chronic nadolol, 5 subjects): 3 subjects
PC20 Doubling Dose ([7]; methacholine PC20 change from baseline at the end of the trial, per subject): more pronounced effect on airway hyper-responsiveness
Puffs/Day Mean Change per Day ([7]; rescue medication use, absolute change from baseline, per subject): results were mixed
airway hyperresponsiveness ([8]; administered acutely): worsens airway hyperresponsiveness
airway hyperresponsiveness ([8]; administered chronically): prevents airway hyperresponsiveness
time to maximum drug in the bloodstream ([9]; immediate-release oral tablets once a day): about 3.5 hours
half-life ([9]; immediate-release oral tablets): about 16 hours
